Results on 10 compounds are retold here after patent publication US20240238423A9, “TETRAHYDROISOQUINOLINE HETEROBIFUNCTIONAL BCL-XL DEGRADERS” (Treeline Biosciences, Inc., priority 2022, published 2024).

The target of the experiment is T1, Human BCL-XL protein (N-terminal HiBiT tagged BCL-XL in HT1080 cells) (Homo sapiens, UniProt Q07817).
T1 construct: expressed in transfected cells; host or cells: HT-1080 (ATCC CCL-121), stably transduced with lentivirus pLV-UBC-N-HiBiT-BCL-XL-PGK-puro and selected with puromycin
T1 sequence (Q07817 whole entry): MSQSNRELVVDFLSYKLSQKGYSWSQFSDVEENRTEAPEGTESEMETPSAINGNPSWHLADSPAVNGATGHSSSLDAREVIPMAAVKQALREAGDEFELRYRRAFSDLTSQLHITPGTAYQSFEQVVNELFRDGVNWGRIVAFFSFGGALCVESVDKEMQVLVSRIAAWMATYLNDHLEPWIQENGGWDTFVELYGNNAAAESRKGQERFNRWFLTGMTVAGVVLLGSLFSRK
Briefly: HiBiT based degradation assay. The settings on record: HT1080 cells expressing HiBiT-BCL-XL; for Ymin (6 h) / Ymin (24 h): BCL-XL degradation normalized with DMSO control; for DC50: BCL-XL degradation. The class given is cell-based. The procedure, abridged: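 HT1080 cells stably transduced by lentivirus with N-terminally HiBiT-tagged human BCL-XL and kept under 1 μg/mL puromycin selection were seeded at three thousand cells per well in 40 μL RPMI 1640 into 384-well plates pre-spotted with compounds across a concentration range. Luminescence was read on a PHERAstar FSX, normalized to DMSO, and fitted with a four-parameter logistic model.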
(HiBiT is a short tag that completes a luciferase, so light tracks the accessible tagged protein.)

Each structure is given as a SMILES string. Like-named read-outs stand apart in the source and are kept apart here.

Turning to `Cc1c(OCCCN2C[C@@H](C)N(CC(=O)Nc3ccc4c(C5CCC(=O)NC5=O)nn(C)c4c3)[C@@H](C)C2)cccc1-c1ccc(N2CCc3cccc(C(=O)Nc4nc5ccccc5s4)c3C2)nc1C(=O)O` (stereo partly drawn) [Compound 116a, 6-[8-(1,3-benzothiazol-2-ylcarbamoyl)-3,4-dihydro-1H-isoquinolin-2-yl]-3-[3-[3-[(3S,5R)-4-[2-[[3-(2,6-dioxo-3-piperidyl)-1-methyl-indazol-6-yl]amino]-2-oxo-ethyl]-3,5-dimethyl-piperazin-1-yl]propoxy]-2-methyl-phenyl]pyridine-2-carboxylic acid], under “6 h”, the “Ymin (6 h)” value is given as “A (Ymin < 50%)”. For the same compound, the “Ymin (24 h)” value (24 h) is “A (Ymin < 50%)”. Also, the DC50 is below 100 nM (6 h, read-out: EC50 (6 h)) and below 100 nM (24 h, read-out: EC50 (24 h)).
Take `Cc1c(OCCCN2C[C@@H](C)N(CC(=O)Nc3cccc4c(C5CCC(=O)NC5=O)nn(C)c34)[C@@H](C)C2)cccc1-c1ccc(N2CCc3cccc(C(=O)Nc4nc5ccccc5s4)c3C2)nc1C(=O)O` (stereo partly drawn) [Compound 117a, 6-[8-(1,3-benzothiazol-2-ylcarbamoyl)-3,4-dihydro-1H-isoquinolin-2-yl]-3-[3-[3-[(3S,5R)-4-[2-[[3-(2,6-dioxo-3-piperidyl)-1-methyl-indazol-7-yl]amino]-2-oxo-ethyl]-3,5-dimethyl-piperazin-1-yl]propoxy]-2-methyl-phenyl]pyridine-2-carboxylic acid]: under “6 h”, the “Ymin (6 h)” value is reported as “B (50% ≤ Ymin < 70%)”. Under “24 h”, the “Ymin (24 h)” value is on record as “B (50% ≤ Ymin < 70%)”. In addition, the DC50 is, setting by setting: (6 h, read-out: EC50 (6 h)) below 100 nM; (24 h, read-out: EC50 (24 h)) below 100 nM.
For the compound `Cc1c(OCCOc2ccc(CC(=O)Nc3cccc4c(C5CCC(=O)NC5=O)nn(C)c34)cc2)cccc1-c1ccc(N2CCc3cccc(C(=O)Nc4nc5ccccc5s4)c3C2)nc1C(=O)O` (centres unmarked) [Compound 118, 6-[8-(1,3-benzothiazol-2-ylcarbamoyl)-3,4-dihydro-1H-isoquinolin-2-yl]-3-[3-[2-[4-[2-[[3-(2,6-dioxo-3-piperidyl)-1-methyl-indazol-7-yl]amino]-2-oxo-ethyl]phenoxy]ethoxy]-2-methyl-phenyl]pyridine-2-carboxylic acid], the “Ymin (6 h)” value (6 h) is listed as “B (50% ≤ Ymin < 70%)”. In addition, the “Ymin (24 h)” value (24 h) is “B (50% ≤ Ymin < 70%)”. Further, the DC50 (6 h, read-out: EC50 (6 h)) lay in the range of 100 to 1000 nM and the DC50 (24 h, read-out: EC50 (24 h)) fell in the range of 1000 to 10000 nM.
As to `Cc1cc(OCCCN2CCN(CC(=O)Nc3ccc4c(C5CCC(=O)NC5=O)nn(C)c4c3)CC2)ccc1-c1ccc(N2CCc3cccc(C(=O)Nc4nc5ccccc5s4)c3C2)nc1C(=O)O` (centres unmarked) [Compound 119, 6-[8-(1,3-benzothiazol-2-ylcarbamoyl)-3,4-dihydro-1H-isoquinolin-2-yl]-3-[4-[3-[4-[2-[[3-(2,6-dioxo-3-piperidyl)-1-methyl-indazol-6-yl]amino]-2-oxo-ethyl]piperazin-1-yl]propoxy]-2-methyl-phenyl]pyridine-2-carboxylic acid], under “6 h”, the “Ymin (6 h)” value was “A (Ymin < 50%)”. Moreover, for the setting “24 h”, the “Ymin (24 h)” value is reported as “A (Ymin < 50%)”. Besides, the DC50 reads like this: (6 h, read-out: EC50 (6 h)) below 100 nM; (24 h, read-out: EC50 (24 h)) below 100 nM.
On to `Cc1c(OCCCN2CCC(CC(=O)Nc3ccc4c(C5CCC(=O)NC5=O)nn(C)c4c3)CC2)cccc1-c1ccc(N2CCc3cccc(C(=O)Nc4nc5ccccc5s4)c3C2)nc1C(=O)O` (centres unmarked) [Compound 120, 6-[8-(1,3-benzothiazol-2-ylcarbamoyl)-3,4-dihydro-1H-isoquinolin-2-yl]-3-[3-[3-[4-[2-[[3-(2,6-dioxo-3-piperidyl)-1-methyl-indazol-6-yl]amino]-2-oxo-ethyl]-1-piperidyl]propoxy]-2-methyl-phenyl]pyridine-2-carboxylic acid], for which the “Ymin (6 h)” value (6 h) is “B (50% ≤ Ymin < 70%)”. Under “24 h”, the “Ymin (24 h)” value is recorded as “B (50% ≤ Ymin < 70%)”. Besides, the DC50 by setting is: (6 h, read-out: EC50 (6 h)) below 100 nM; (24 h, read-out: EC50 (24 h)) below 100 nM.
For `Cc1c(OCCCC2CCN(CC(=O)Nc3ccc4c(C5CCC(=O)NC5=O)nn(C)c4c3)CC2)cccc1-c1ccc(N2CCc3cccc(C(=O)Nc4nc5ccccc5s4)c3C2)nc1C(=O)O` (centres unmarked) [Compound 121, 6-(8-(Benzo[d]thiazol-2-ylcarbamoyl)-3,4-dihydroisoquinolin-2(1H)-yl)-3-(3-(3-(1-(2-((3-(2,6-dioxopiperidin-3-yl)-1-methyl-1H-indazol-6-yl)amino)-2-oxoethyl)piperidin-4-yl)propoxy)-2-methylphenyl)picolinic acid], for the setting “6 h”, the “Ymin (6 h)” value is “A (Ymin < 50%)”. Also, the “Ymin (24 h)” value (24 h) is “A (Ymin < 50%)”. In addition, the DC50 (6 h, read-out: EC50 (6 h)) is below 100 nM and the DC50 (24 h, read-out: EC50 (24 h)) was below 100 nM.
In the case of `Cc1c(OCCCN2CCC(CC(=O)Nc3cccc4c(C5CCC(=O)NC5=O)nn(C)c34)CC2)cccc1-c1ccc(N2CCc3cccc(C(=O)Nc4nc5ccccc5s4)c3C2)nc1C(=O)O` (centres unmarked) [Compound 122, 6-[8-(1,3-benzothiazol-2-ylcarbamoyl)-3,4-dihydro-1H-isoquinolin-2-yl]-3-[3-[3-[4-[2-[[3-(2,6-dioxo-3-piperidyl)-1-methyl-indazol-7-yl]amino]-2-oxo-ethyl]-1-piperidyl]propoxy]-2-methyl-phenyl]pyridine-2-carboxylic acid], the “Ymin (6 h)” value (6 h) is given as “B (50% ≤ Ymin < 70%)”. In addition, for the setting “24 h”, the “Ymin (24 h)” value was “B (50% ≤ Ymin < 70%)”. Moreover, the DC50 is below 100 nM (6 h, read-out: EC50 (6 h)) and below 100 nM (24 h, read-out: EC50 (24 h)).
On to `Cc1c(Oc2ccc(CCCNc3ccc4c(C5CCC(=O)NC5=O)nn(C)c4c3)cc2)cccc1-c1ccc(N2CCc3cccc(C(=O)Nc4nc5ccccc5s4)c3C2)nc1C(=O)O` (centres unmarked) [Compound 123, 6-[8-(1,3-benzothiazol-2-ylcarbamoyl)-3,4-dihydro-1H-isoquinolin-2-yl]-3-[3-[4-[3-[[3-(2,6-dioxo-3-piperidyl)-1-methyl-indazol-6-yl]amino]propyl]phenoxy]-2-methyl-phenyl]pyridine-2-carboxylic acid], for which the “Ymin (6 h)” value (6 h) is “C (Ymin ≥ 70%)”. Also, for the setting “6 h, read-out: EC50 (6 h)”, the DC50 is 100 to 1000 nM.
On to `Cc1c(O[C@H]2CC[C@H](CCC(=O)Nc3cccc4c(C5CCC(=O)NC5=O)nn(C)c34)CC2)cccc1-c1ccc(N2CCc3cccc(C(=O)Nc4nc5ccccc5s4)c3C2)nc1C(=O)O` (some centres unmarked) [Compound 124a, 6-(8-(benzo[d]thiazol-2-ylcarbamoyl)-3,4-dihydroisoquinolin-2(1H)-yl)-3-(3-(((1r,4r)-4-(3-((3-(2,6-dioxopiperidin-3-yl)-1-methyl-1H-indazol-7-yl)amino)-3-oxopropyl)cyclohexyl)oxy)-2-methylphenyl)picolinic acid], for which the “Ymin (6 h)” value (6 h) is reported as “C (Ymin ≥ 70%)”. Besides, the “Ymin (24 h)” value (24 h) is given as “C (Ymin ≥ 70%)”. Moreover, the DC50 runs as follows: (6 h, read-out: EC50 (6 h)) 1000 to 10000 nM; (24 h, read-out: EC50 (24 h)) below 100 nM.
`Cc1c(O[C@H]2CC[C@H](CCC(=O)Nc3ccc4c(C5CCC(=O)NC5=O)nn(C)c4c3)CC2)cccc1-c1ccc(N2CCc3cccc(C(=O)Nc4nc5ccccc5s4)c3C2)nc1C(=O)O` (some centres unmarked) [Compound 125a, 6-(8-(benzo[d]thiazol-2-ylcarbamoyl)-3,4-dihydroisoquinolin-2(1H)-yl)-3-(3-(((1r,4r)-4-(3-((3-(2,6-dioxopiperidin-3-yl)-1-methyl-1H-indazol-6-yl)amino)-3-oxopropyl)cyclohexyl)oxy)-2-methylphenyl)picolinic acid]: the “Ymin (6 h)” value (6 h) is reported as “C (Ymin ≥ 70%)”. Further, for the setting “24 h”, the “Ymin (24 h)” value is listed as “C (Ymin ≥ 70%)”. Further, the DC50 fell in the range of 1000 to 10000 nM (6 h, read-out: EC50 (6 h)) and 1000 to 10000 nM (24 h, read-out: EC50 (24 h)).
